In patent publication US9018208B2, “Heterocycles as potassium channel modulators” (Icagen Inc., priority 2007, dated 2015):

test system: SH-SY5Y M-currents (KCNQ2, KCNQ3 and KCNQ5); experiment: SH-SY5Y native cell line FLIPR assay (voltage-sensitive dye DiBAC); assay type: cell-based, mouse neuroblastoma, rat glioma hybrid cell line; settings: FLIPR assay, SH-SY5Y native cell line; Table 2; read-out: SH-SY5Y EC50
Procedure, shortened: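 Response is peak DiBAC fluorescence change, normalised to the maximum from a positive control agent, sampled every 30 s over 25 min. Before compound addition, SH-SY5Y cells differentiated with PGE1 plus isomethylbutylxanthine were dye-loaded for 1 h in EBSS with […] DiBAC.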

Compound	EC50
Cc1c(F)ccc(-c2c(NC(=O)CC(C)(C)C)nc3ccc(F)cn23)c1F [Compound 256, N-(3-(2,4-difluoro-3-methylphenyl)-6-fluoroimidazo[1,2-a]pyridin-2-yl)-3,3-dimethylbutanamide]	500 to 3000 nM
Cc1cc(-c2c(NC(=O)CC(C)(C)C)nc3ccc(F)cn23)ccc1Cl [Compound 257, N-(3-(4-chloro-3-methylphenyl)-6-fluoroimidazo[1,2-a]pyridin-2-yl)-3,3-dimethylbutanamide]	< 500 nM
Cc1ccc(-c2c(NC(=O)CC(C)(C)C)nc3ccc(F)cn23)cc1Cl [Compound 258, N-(3-(3-chloro-4-methylphenyl)-6-fluoroimidazo[1,2-a]pyridin-2-yl)-3,3-dimethylbutanamide]	< 500 nM
CC(C)(C)CC(=O)Nc1nc2ccc(C#N)cn2c1-c1ccc(C(F)(F)F)cc1 [Compound 259, N-(6-cyano-3-(4-(trifluoromethyl)phenyl)imidazo[1,2-a]pyridin-2-yl)-3,3-dimethylbutanamide]	< 500 nM
N#Cc1ccc2nc(NC(=O)Cc3ccc(F)cc3)c(-c3ccc(C(F)(F)F)cc3)n2c1 [Compound 260, N-(6-cyano-3-(4-(trifluoromethyl)phenyl)imidazo[1,2-a]pyridin-2-yl)-2-(4-fluorophenyl)acetamide]	< 500 nM
CC(C)(C)CC(=O)Nc1nc2c(F)cc(F)cn2c1-c1ccc(OC(F)(F)F)cc1 [Compound 262, N-(6,8-difluoro-3-(4-(trifluoromethoxy)phenyl)imidazo[1,2-a]pyridin-2-yl)-3,3-dimethylbutanamide]	< 500 nM
O=C(CC(F)(F)F)Nc1nc2ccc(F)cn2c1-c1cccc(OC(F)(F)F)c1 [Compound 263, 3,3,3-trifluoro-N-(6-fluoro-3-(3-(trifluoromethoxy)phenyl)imidazo[1,2-a]pyridin-2-yl)propanamide]	500 to 3000 nM
O=C(CC1CCCC1)Nc1nc2ccc(F)cn2c1-c1cccc(OC(F)(F)F)c1 [Compound 264, 2-cyclopentyl-N-(6-fluoro-3-(3-(trifluoromethoxy)phenyl)imidazo[1,2-a]pyridin-2-yl)acetamide]	< 500 nM
O=C(CC1CC1)Nc1nc2ccc(F)cn2c1-c1cccc(OC(F)(F)F)c1 [Compound 265, 2-cyclopropyl-N-(6-fluoro-3-(3-(trifluoromethoxy)phenyl)imidazo[1,2-a]pyridin-2-yl)acetamide]	500 to 3000 nM
O=C(CC1CCC1)Nc1nc2ccc(F)cn2c1-c1cccc(OC(F)(F)F)c1 [Compound 266, 2-cyclobutyl-N-(6-fluoro-3-(3-(trifluoromethoxy)phenyl)imidazo[1,2-a]pyridin-2-yl)acetamide]	< 500 nM
O=C(CC(F)(F)F)Nc1nc2ccc(F)cn2c1-c1cccc(C(F)(F)F)c1 [Compound 267, 3,3,3-trifluoro-N-(6-fluoro-3-(3-(trifluoromethyl)phenyl)imidazo[1,2-a]pyridin-2-yl)propanamide]	500 to 3000 nM
O=C(CC1CCCC1)Nc1nc2ccc(F)cn2c1-c1cccc(C(F)(F)F)c1 [Compound 268, 2-cyclopentyl-N-(6-fluoro-3-(3-(trifluoromethyl)phenyl)imidazo[1,2-a]pyridin-2-yl)acetamide]	< 500 nM
O=C(CC1CC1)Nc1nc2ccc(F)cn2c1-c1cccc(C(F)(F)F)c1 [Compound 269, 2-cyclopropyl-N-(6-fluoro-3-(3-(trifluoromethyl)phenyl)imidazo[1,2-a]pyridin-2-yl)acetamide]	500 to 3000 nM
O=C(CC1CCC1)Nc1nc2ccc(F)cn2c1-c1cccc(C(F)(F)F)c1 [Compound 270, 2-cyclobutyl-N-(6-fluoro-3-(3-(trifluoromethyl)phenyl)imidazo[1,2-a]pyridin-2-yl)acetamide]	< 500 nM
O=C(Cc1ccc(F)cc1)Nc1nc2ccc(Cl)nn2c1-c1ccc(C(F)(F)F)cc1 [Compound 272, N-(6-chloro-3-(4-(trifluoromethyl)phenyl)imidazo[1,2-b]pyridazin-2-yl)-2-(4-fluorophenyl)acetamide]	500 to 3000 nM
Cc1ccc(-c2c(NC(=O)CC(C)(C)C)nc3ccc(F)cn23)cc1 [Compound 273, N-(6-fluoro-3-p-tolylimidazo[1,2-a]pyridin-2-yl)-3,3-dimethylbutanamide]	500 to 3000 nM
O=C(CCC1CC1)Nc1nc2ccc(F)cn2c1-c1cccc(OC(F)(F)F)c1 [Compound 274, 3-cyclopropyl-N-(6-fluoro-3-(3-(trifluoromethoxy)phenyl)imidazo[1,2-a]pyridin-2-yl)propanamide]	< 500 nM
O=C(CCC(F)(F)F)Nc1nc2ccc(F)cn2c1-c1cccc(OC(F)(F)F)c1 [Compound 275, 4,4,4-trifluoro-N-(6-fluoro-3-(3-(trifluoromethoxy)phenyl)imidazo[1,2-a]pyridin-2-yl)butanamide]	500 to 3000 nM
CC(CC(=O)Nc1nc2ccc(F)cn2c1-c1cccc(OC(F)(F)F)c1)C(F)(F)F (stereo not shown) [Compound 276, 4,4,4-trifluoro-N-(6-fluoro-3-(3-(trifluoromethoxy)phenyl)imidazo[1,2-a]pyridin-2-yl)-3-methylbutanamide]	< 500 nM

Compound	EC50
CC(C)(C)OCCC(=O)Nc1nc2ccc(F)cn2c1-c1cccc(OC(F)(F)F)c1 [Compound 277, 3-tert-butoxy-N-(6-fluoro-3-(3-(trifluoromethoxy)phenyl)imidazo[1,2-a]pyridin-2-yl)propanamide]	< 500 nM
CC(C)C(C)C(=O)Nc1nc2ccc(F)cn2c1-c1cccc(OC(F)(F)F)c1 (stereo not shown) [Compound 278, N-(6-fluoro-3-(3-(trifluoromethoxy)phenyl)imidazo[1,2-a]pyridin-2-yl)-2,3-dimethylbutanamide]	< 500 nM
CC(C)(C)CCC(=O)Nc1nc2ccc(F)cn2c1-c1cccc(OC(F)(F)F)c1 [Compound 279, N-(6-fluoro-3-(3-(trifluoromethoxy)phenyl)imidazo[1,2-a]pyridin-2-yl)-4,4-dimethylpentanamide]	< 500 nM
O=C(CCC1CC1)Nc1nc2ccc(F)cn2c1-c1cccc(C(F)(F)F)c1 [Compound 280, 3-cyclopropyl-N-(6-fluoro-3-(3-(trifluoromethyl)phenyl)imidazo[1,2-a]pyridin-2-yl)propanamide]	500 to 3000 nM
O=C(CCC(F)(F)F)Nc1nc2ccc(F)cn2c1-c1cccc(C(F)(F)F)c1 [Compound 281, 4,4,4-trifluoro-N-(6-fluoro-3-(3-(trifluoromethyl)phenyl)imidazo[1,2-a]pyridin-2-yl)butanamide]	500 to 3000 nM
CC(CC(=O)Nc1nc2ccc(F)cn2c1-c1cccc(C(F)(F)F)c1)C(F)(F)F (stereo not shown) [Compound 282, 4,4,4-trifluoro-N-(6-fluoro-3-(3-(trifluoromethyl)phenyl)imidazo[1,2-a]pyridin-2-yl)-3-methylbutanamide]	< 500 nM
CC(C)(C)CCC(=O)Nc1nc2ccc(F)cn2c1-c1cccc(C(F)(F)F)c1 [Compound 283, N-(6-fluoro-3-(3-(trifluoromethyl)phenyl)imidazo[1,2-a]pyridin-2-yl)-4,4-dimethylpentanamide]	< 500 nM
O=C(CC(F)(F)F)Nc1nc2ccc(F)cn2c1-c1cccc(Cl)c1 [Compound 284, N-(3-(3-chlorophenyl)-6-fluoroimidazo[1,2-a]pyridin-2-yl)-3,3,3-trifluoropropanamide]	500 to 3000 nM
O=C(CCC(F)(F)F)Nc1nc2ccc(F)cn2c1-c1cccc(Cl)c1 [Compound 285, N-(3-(3-chlorophenyl)-6-fluoroimidazo[1,2-a]pyridin-2-yl)-4,4,4-trifluorobutanamide]	500 to 3000 nM
CC1(CC(=O)Nc2nc3ccc(F)cn3c2-c2cccc(Cl)c2)CCCC1 [Compound 286, N-(3-(3-chlorophenyl)-6-fluoroimidazo[1,2-a]pyridin-2-yl)-2-(1-methylcyclopentyl)acetamide]	< 500 nM
CC(C)(C)OCCC(=O)Nc1nc2ccc(F)cn2c1-c1cccc(C(F)(F)F)c1 [Compound 287, 3-tert-butoxy-N-(6-fluoro-3-(3-(trifluoromethyl)phenyl)imidazo[1,2-a]pyridin-2-yl)propanamide]	500 to 3000 nM
CC(C)C(C)C(=O)Nc1nc2ccc(F)cn2c1-c1cccc(C(F)(F)F)c1 (stereo not shown) [Compound 288, N-(6-fluoro-3-(3-(trifluoromethyl)phenyl)imidazo[1,2-a]pyridin-2-yl)-2,3-dimethylbutanamide]	500 to 3000 nM
O=C(Nc1nc2ccc(F)cn2c1-c1cccc(C(F)(F)F)c1)C1CCCC1 [Compound 289, N-(6-fluoro-3-(3-(trifluoromethyl)phenyl)imidazo[1,2-a]pyridin-2-yl)cyclopentanecarboxamide]	< 500 nM
O=C(Nc1nc2ccc(F)cn2c1-c1ccc(OC(F)(F)F)cc1)C1CCCC1 [Compound 290, N-(6-fluoro-3-(4-(trifluoromethoxy)phenyl)imidazo[1,2-a]pyridin-2-yl)cyclopentanecarboxamide]	< 500 nM
O=C(Nc1nc2ccc(F)cn2c1-c1ccc(OC(F)(F)F)cc1)C1CCCCCC1 [Compound 291, N-(6-fluoro-3-(4-(trifluoromethoxy)phenyl)imidazopyridin-2-yl)cycloheptanecarboxamide]	< 500 nM
O=C(Nc1nc2ccc(F)cn2c1-c1ccc(OC(F)(F)F)cc1)C1Cc2ccccc2C1 [Compound 292, N-(6-fluoro-3-(4-(trifluoromethoxy)phenyl)imidazo[1,2-a]pyridin-2-yl)-2,3-dihydro-1H-indene-2-carboxamide]	500 to 3000 nM
O=C(Cc1ccccc1)Nc1nc2ccc(F)cn2c1-c1ccc(OC(F)(F)F)c(F)c1 [Compound 295, N-(6-fluoro-3-(3-fluoro-4-(trifluoromethoxy)phenyl)imidazo[1,2-a]pyridin-2-yl)-2-phenylacetamide]	< 500 nM
O=C(Cc1ccc(F)cc1)Nc1nc2ccc(F)cn2c1-c1ccc(OC(F)(F)F)c(F)c1 [Compound 296, N-(6-fluoro-3-(3-fluoro-4-(trifluoromethoxy)phenyl)imidazo[1,2-a]pyridin-2-yl)-2-(4-fluorophenyl)acetamide]	< 500 nM
